The numbers were not newly measured in patent publication US7374920B2, “Ginkgo biloba levopimaradiene synthase” (priority 2001, dated 2008), which cites them from elsewhere.

Data set [1] addresses platelet-activating factor (PAF) receptor (Homo sapiens, UniProt P25105). To be noted: compared with the other ginkgolide diterpenes; cited from earlier work.
The subject of the next data set is insect larvae. To be noted: Schwarz, M., 1994; Matsumoto, et al., 1987; cited from earlier work.

Structures are written as SMILES.

Chain of platelet-activating factor (PAF) receptor (P25105 whole entry): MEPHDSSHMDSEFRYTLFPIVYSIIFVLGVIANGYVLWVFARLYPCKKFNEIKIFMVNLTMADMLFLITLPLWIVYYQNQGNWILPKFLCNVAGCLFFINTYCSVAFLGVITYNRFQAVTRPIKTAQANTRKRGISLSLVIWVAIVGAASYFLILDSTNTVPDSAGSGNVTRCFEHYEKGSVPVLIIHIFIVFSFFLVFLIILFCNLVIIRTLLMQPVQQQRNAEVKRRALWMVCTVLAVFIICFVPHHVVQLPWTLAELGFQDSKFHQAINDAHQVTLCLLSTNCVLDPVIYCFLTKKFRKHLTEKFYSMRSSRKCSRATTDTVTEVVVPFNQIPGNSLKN

For `CC1C(=O)OC2C(O)C34C5CC(C(C)(C)C)C36C(OC(=O)C6O)OC4(C(=O)O5)C12O` (centres unmarked) [ginkgolide B], in data set [1], the PAF antagonist activity result is “highest activity of the diterpenes”. As for `CC(C)(C)[C@]1(O)CC2OC(=O)CC23C(=O)OC2OC(=O)[C@H](O)C231` (some centres unmarked) [bilobalide], the antifeedant activity entry with insect larvae is “significant antifeedant activities toward insect larvae”.
